For the test, the target named is Tau-tubulin kinase 2 (Homo sapiens, UniProt Q6IQ55). Description: Inhibition of TTBK2 (unknown origin).

Molecules are shown by their SMILES.

A word on the IC50: it is the midpoint of a concentration-inhibition curve.

Chain of Tau-tubulin kinase 2 (Q6IQ55 whole entry): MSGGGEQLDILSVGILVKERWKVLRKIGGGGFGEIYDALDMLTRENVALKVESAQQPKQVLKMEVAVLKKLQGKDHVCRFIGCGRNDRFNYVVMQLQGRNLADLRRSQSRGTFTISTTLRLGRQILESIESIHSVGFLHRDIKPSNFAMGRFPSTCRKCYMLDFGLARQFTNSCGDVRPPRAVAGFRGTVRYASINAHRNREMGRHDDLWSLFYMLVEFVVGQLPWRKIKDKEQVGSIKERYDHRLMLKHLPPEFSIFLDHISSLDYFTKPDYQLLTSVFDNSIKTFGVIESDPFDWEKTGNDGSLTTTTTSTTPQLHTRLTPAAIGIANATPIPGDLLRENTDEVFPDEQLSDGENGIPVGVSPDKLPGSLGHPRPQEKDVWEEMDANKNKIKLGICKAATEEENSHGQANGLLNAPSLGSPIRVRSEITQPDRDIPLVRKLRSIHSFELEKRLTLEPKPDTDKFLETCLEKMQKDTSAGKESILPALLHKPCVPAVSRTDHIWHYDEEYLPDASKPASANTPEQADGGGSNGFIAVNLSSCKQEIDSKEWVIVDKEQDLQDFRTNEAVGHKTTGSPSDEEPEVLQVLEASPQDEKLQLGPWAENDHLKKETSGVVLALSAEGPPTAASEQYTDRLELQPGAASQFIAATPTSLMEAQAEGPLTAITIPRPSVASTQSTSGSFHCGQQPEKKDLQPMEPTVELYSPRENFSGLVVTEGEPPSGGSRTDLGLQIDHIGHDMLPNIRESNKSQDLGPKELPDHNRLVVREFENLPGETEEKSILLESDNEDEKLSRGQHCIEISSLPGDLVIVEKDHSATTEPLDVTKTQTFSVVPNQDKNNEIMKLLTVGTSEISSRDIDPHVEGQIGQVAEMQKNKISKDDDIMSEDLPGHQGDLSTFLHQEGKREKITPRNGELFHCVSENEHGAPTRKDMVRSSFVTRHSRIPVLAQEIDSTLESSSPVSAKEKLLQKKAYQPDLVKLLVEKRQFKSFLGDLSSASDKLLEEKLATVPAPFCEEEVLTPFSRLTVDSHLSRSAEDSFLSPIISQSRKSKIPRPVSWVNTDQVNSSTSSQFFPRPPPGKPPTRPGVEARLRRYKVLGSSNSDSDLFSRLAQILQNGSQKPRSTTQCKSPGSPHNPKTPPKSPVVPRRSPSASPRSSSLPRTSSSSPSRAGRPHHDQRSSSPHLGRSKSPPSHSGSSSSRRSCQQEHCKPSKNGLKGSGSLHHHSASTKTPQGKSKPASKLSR

The compound `CC1(N)CCN(Cc2ccn3ncnc(Nc4cc(O)cc(Br)c4)c23)CC1` came in with an IC50 of 1.6 nM. This lies in the single-digit nanomolar range.
